For one assay, the target named is intact, native laminin (Mus musculus, UniProt P02469+P19137). The experiment in a line: Inhibition of heparin binding to laminin by peptide fragments in solution (Example 3). As to conditions: peptides in solution 1 mg/ml to 1 μg/ml, laminin coated on plastic at 60 μg/ml, FIG. 6. The method, then: Peptides 9, 11-14 and 16 in solution (and not absorbed to plastic), were screened for the ability to inhibit the binding of heparin to intact, native laminin coated on plastic. This experimental approach avoids problems due to differential coating of peptides in heparin binding assays. Laminin at 60 μg/ml in PBS was coated on 96-well plates, using 50 μls per well and dried overnight at 28+ C. The wells were then treated for two hours with 2 mg/ml BSA in wash buffer (described above in Example 2). Peptides at various dilutions ranging from 1 mg/ml to 1 μg/ml in PBS and CHAPS (Cholamido-propyl-dimethyl-Axmmonio-PropaneSulfonate)(a detergent used to avoid non-specific sticking) were co-incubated with a standard amount of ^3 H-heparin (25,000 cpm per well 5 μg/ml final concentration) for two hours at 37° C. and the mixture was then transferred to the laminin coated plate (50 μl) and allowed to incubate for another two hours at 37° C. The wells were then washed and radioactivity was counted as described above.

Assay [1] deals with Murine fibrosarcoma cells (uv-2237-MM). Briefly: Cell adhesion assay for MM fibrosarcoma cell line (Example 6B). In kind it is cell-based. The settings on record: FIG. 11. As to the method: (§1) Adhesion was measured using 96 well microtiter plates adsorbed with three different amounts (0.1; 1.0; and 10.0 μg/per well) of peptides 9, 11-18, BSA and laminin. Cultures of cells which were 60-80% confluent were metabolically labeled for 24 hours with the addition of 3 mCi/ml of ^3 H-amino acid mixture. On the day of the assay, the cells were harvested by trypsinization, the trypsin was inhibited by the addition of serum, and the cells were washed free of this mixture and resuspended in DMEM buffered with HEPES at pH 7.2. The adhesion medium also contained 2 mg/ml BSA. The cells were adjusted to a concentration of 3-4×10^4 /ml and 100 μls of this cell suspension was added to the wells. The assay mixture was then incubated at 37° C for 120 minutes. At the end of the incubation, the wells were washed with warm PBS containing 10 mM Ca^++, and the adherent population was solubilized with 0.5N NaOH containing 1% sodium dodecyl sulfate. The solubilized cells were then quantitated using a liquid scintillation counter. Each determination was done in triplicate.
Murine fibrosarcoma cells (uv-2237-MM) were originally provided by Dr. I. J. Fidler of Anderson Hospital, University of Texas Health Sciences Center, Houston, Tex. Culturing, labeling and harvesting techniques were as described in part A. Cell adhesion assay was performed as described in Example 5.

Assay [2] concerns PC12 rat pheochromocytoma cells. Briefly: Cell adhesion assay for PC12 pheochromocytoma cell line (Example 6D). In kind it is cell-based. As to conditions: FIG. 13. As to the method: as §1
PC12 rat pheochromocytoma cells were provided by Dr. P. Letourneau of the Department of Anatomy, University of Minnesota, Minneapolis, Minn. Culturing techniques were as described in part A. Labelling and harvesting techniques were as described in Example 5. Cell adhesion assay was performed as described in Example 5.

SMILES strings stand for the structures. Peptide text beside a SMILES is read from it.

This note sets out measurements from patent US4870160A, “Polypeptides with laminin activity” (Regents of the University of Minnesota, priority 1987, dated 1989).

With `CSCC[C@H](NC(=O)CNC(=O)[C@H](CCCCN)NC(=O)[C@H](CCC(=O)O)NC(=O)[C@H](Cc1ccccc1)NC(=O)[C@H](CS)NC(=O)[C@@H](NC(=O)[C@@H]1CCCN1C(=O)[C@H](CCCNC(=N)N)NC(=O)[C@@H]1CCCN1C(=O)[C@H](CC(C)C)NC(=O)[C@@H](NC(=O)[C@@H](NC(=O)[C@H](Cc1ccc(O)cc1)NC(=O)[C@@H](N)CCCNC(=N)N)C(C)C)C(C)C)C(C)C)C(=O)N[C@@H](CC(N)=O)C(=O)N[C@@H](Cc1ccc(O)cc1)C(=O)N[C@H](C(=O)N[C@H](C(=O)N[C@@H](CCCNC(=N)N)C(=O)O)C(C)C)[C@@H](C)O` [Peptide F9] (H-RYVVLPRPVCFEKGMNYTVR-OH), the “inhibition of binding of heparin to laminin” value on intact, native laminin is reported as “interact most strongly with heparin”. Besides, the cell adhesion result in assay [1] and in assay [2] was “potent promoters of cell adhesion” each time.
On to `CC[C@H](C)[C@H](NC(=O)[C@H](CCCCN)NC(=O)[C@H](CC(C)C)NC(=O)[C@H](C)NC(=O)[C@H](CCCCN)NC(=O)[C@H](C)NC(=O)[C@H](CCCCN)NC(=O)[C@H](CCC(=O)O)NC(=O)[C@H](CC(C)C)NC(=O)[C@H](Cc1ccccc1)NC(=O)[C@H](CCCCN)NC(=O)[C@H](Cc1c[nH]cn1)NC(=O)[C@@H](NC(=O)[C@H](CCCNC(=N)N)NC(=O)[C@H](CC(N)=O)NC(=O)[C@@H](NC(=O)[C@H](CC(C)C)NC(=O)[C@@H](N)CCC(=O)O)[C@@H](C)O)[C@@H](C)O)C(=O)O` [Peptide F13, ELTNRTHKFLEKAKALKI] (H-ELTNRTHKFLEKAKALKI-OH), for which the “inhibition of binding of heparin to laminin” value on intact, native laminin is given as “interact most strongly with heparin”. Besides, the cell adhesion result in assay [1] and in assay [2] was “potent promoters of cell adhesion” throughout.
